Measured values taken from PubChem BioAssay AID248 (DTP/NCI, 2004).
Values joined by “and” are separate entries in the source; they are usually repeats but may differ in a detail not shown here. Equal entries are not always repeated. Toxic doses and inconclusive results are not listed. No stated cut-off is given here; in the data, active means T/C of 150% or more; inactive means T/C below 125%.

Test system: L1210 leukemia ip in BDF1 mice, survival T/C
Test: NCI In Vivo Anticancer Drug Screen. Data for tumor model L1210 Leukemia (intraperitoneal) in B6D2F1 (BDF1) mice
Conditions: endpoint: mean survival time, higher = longer survival
Method in brief: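 Antitumor effect is assessed in tumor-bearing animals. Survival in the compound arm is compared with a vehicle-dosed control arm and expressed as their quotient.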

[1] = dose: 100.0 mg/kg/injection, schedule: Q01DX009 (ip), vehicle: saline with Tween-80
[2] = dose: 200.0 mg/kg/injection, schedule: Q01DX009 (ip), vehicle: saline with Tween-80
[3] = dose: 400.0 mg/kg/injection, schedule: Q01DX009 (ip), vehicle: saline with Tween-80
[4] = dose: 50.0 mg/kg/injection, schedule: Q01DX001 (ip), vehicle: saline
[5] = dose: 100.0 mg/kg/injection, schedule: Q01DX001 (ip), vehicle: saline
[6] = dose: 200.0 mg/kg/injection, schedule: Q01DX001 (ip), vehicle: saline
[7] = dose: 400.0 mg/kg/injection, schedule: Q01DX001 (ip), vehicle: saline
[8] = dose: 100.0 mg/kg/injection, schedule: Q04DX003 (ip), vehicle: Klucel (hydroxypropylcellulose) (HPC)
[9] = dose: 200.0 mg/kg/injection, schedule: Q04DX003 (ip), vehicle: Klucel (hydroxypropylcellulose) (HPC)
[10] = dose: 400.0 mg/kg/injection, schedule: Q04DX003 (ip), vehicle: Klucel (hydroxypropylcellulose) (HPC)
[11] = dose: 100.0 mg/kg/injection, schedule: Q01DX009 (ip), vehicle: Klucel (hydroxypropylcellulose) (HPC)
[12] = dose: 200.0 mg/kg/injection, schedule: Q01DX009 (ip), vehicle: Klucel (hydroxypropylcellulose) (HPC)
[13] = dose: 400.0 mg/kg/injection, schedule: Q01DX009 (ip), vehicle: Klucel (hydroxypropylcellulose) (HPC)

Measured: T/C

C#CC(C)OCC1CO1 (configuration not stated)
inactive: dose: 50.0 mg/kg/injection, schedule: Q01DX009 (ip), vehicle: saline 86 % of control | dose: 100.0 mg/kg/injection, schedule: Q01DX009 (ip), vehicle: saline 86 % of control | dose: 100.0 mg/kg/injection, schedule: Q04DX003 (ip), vehicle: saline sonified 117 % of control | dose: 200.0 mg/kg/injection, schedule: Q01DX009 (ip), vehicle: saline 93 % of control | dose: 200.0 mg/kg/injection, schedule: Q04DX003 (ip), vehicle: saline sonified 93 % of control

Cc1cc(Cl)c(Cl)cc1NC(=O)c1ccc(Cl)c(Cl)c1
inactive: [1] 94 % of control and 101 % of control | [2] 101 % of control | [3] 102 % of control and 104 % of control

Nc1ccc(Br)cc1
inactive: [1] 100 % of control | [2] 95 % of control | [3] 99 % of control

C[N+](C)(C)CCC[N+]1(C)CCC2(CCCC(C(F)(F)F)C2)CC1 (configuration not stated)
inactive: [4] 98 % of control | [5] 104 % of control | [6] 96 % of control

CC(=O)COc1ccc([N+](=O)[O-])cc1
inactive: dose: 100.0 mg/kg/injection, schedule: Q01DX001 (ip), vehicle: saline with Tween-80 100 % of control | dose: 200.0 mg/kg/injection, schedule: Q01DX001 (ip), vehicle: saline with Tween-80 102 % of control | dose: 400.0 mg/kg/injection, schedule: Q01DX001 (ip), vehicle: saline with Tween-80 98 % of control

COc1ccc(N=Nc2sc(N)nc2-c2ccc(Cl)cc2)cc1
inactive: dose: 12.5 mg/kg/injection, schedule: Q01DX001 (ip), vehicle: saline with Tween-80 93 % of control | dose: 25.0 mg/kg/injection, schedule: Q01DX001 (ip), vehicle: saline with Tween-80 90 % of control | dose: 50.0 mg/kg/injection, schedule: Q01DX001 (ip), vehicle: saline with Tween-80 101 % of control

Cc1ccc(N(CCO)CCO)cc1
inactive: [4] 93 % of control | [5] 102 % of control

Cc1ccccc1NC(=O)C1CCCC1=O (configuration not stated)
inactive: [4] 101 % of control | [5] 103 % of control | [7] 109 % of control

c1ccc2c(c1)ccc1c3ccccc3[nH]c21
inactive: dose: 100.0 mg/kg/injection, schedule: Q04DX003 (ip), vehicle: saline with Tween-80 93 % of control | dose: 200.0 mg/kg/injection, schedule: Q04DX003 (ip), vehicle: saline with Tween-80 105 % of control | dose: 400.0 mg/kg/injection, schedule: Q04DX003 (ip), vehicle: saline with Tween-80 96 % of control

O=C(COc1ccc(Cl)cc1C(=O)O)NCc1cccc2ccccc12
inactive: [8] 97 % of control | [9] 98 % of control | [10] 100 % of control

CCOc1ccc(-n2cnc3ccccc3c2=O)cc1CN(CCCl)CCCl
inactive: dose: 100.0 mg/kg/injection, schedule: Q01DX001 (ip), vehicle: Klucel (hydroxypropylcellulose) (HPC) 100 % of control | dose: 200.0 mg/kg/injection, schedule: Q01DX001 (ip), vehicle: Klucel (hydroxypropylcellulose) (HPC) 102 % of control | dose: 400.0 mg/kg/injection, schedule: Q01DX001 (ip), vehicle: Klucel (hydroxypropylcellulose) (HPC) 100 % of control

NC(CC(=O)CCl)C(=O)O (configuration not stated)
inactive: dose: 9.4 mg/kg/injection, schedule: Q01DX009 (ip), vehicle: saline 107 % of control | dose: 18.8 mg/kg/injection, schedule: Q01DX009 (ip), vehicle: saline 102 % of control | dose: 22.0 mg/kg/injection, schedule: Q04DX003 (ip), vehicle: saline 121 % of control | dose: 75.0 mg/kg/injection, schedule: Q01DX001 (ip), vehicle: carboxymethylcellulose (CMC) 121 % of control | dose: 75.0 mg/kg/injection, schedule: Q01DX009 (ip), vehicle: carboxymethylcellulose (CMC) 88 % of control | dose: 150.0 mg/kg/injection, schedule: Q01DX001 (ip), vehicle: carboxymethylcellulose (CMC) 109 % of control

O=C(O)CC(c1ccccc1)C(Nc1ccc2ccccc2c1)C(=O)O (configuration not stated)
inactive: dose: 100.0 mg/kg/injection, schedule: Q04DX002 (ip), vehicle: Klucel (hydroxypropylcellulose) (HPC) 89 % of control | dose: 200.0 mg/kg/injection, schedule: Q04DX002 (ip), vehicle: Klucel (hydroxypropylcellulose) (HPC) 100 % of control | dose: 400.0 mg/kg/injection, schedule: Q04DX002 (ip), vehicle: Klucel (hydroxypropylcellulose) (HPC) 96 % of control

CCOC(=O)Nc1cc(NC(c2ccccc2)c2ccccc2)c([N+](=O)[O-])c(NC(=O)OCC)n1
inactive: dose: 100.0 mg/kg/injection, schedule: Q01DX001 (ip), vehicle: carboxymethylcellulose (CMC) 97 % of control | dose: 200.0 mg/kg/injection, schedule: Q01DX001 (ip), vehicle: carboxymethylcellulose (CMC) 92 % of control | dose: 400.0 mg/kg/injection, schedule: Q01DX001 (ip), vehicle: carboxymethylcellulose (CMC) 92 % of control

CN1CCCC2C(c3ccccc3)C(C3=NCCCC3)C(c3ccccc3)CC21 (configuration not stated)
inactive: [5] 88 % of control

O=[N+]([O-])c1cccc(/C=C\C=C\c2ccccc2)c1
inactive: [4] 100 % of control | [5] 103 % of control | [6] 103 % of control | [7] 94 % of control

CCC(CO)ON=C(C)C (configuration not stated)
inactive: [5] 104 % of control | [6] 104 % of control | [7] 102 % of control

Cc1ccc(S(=O)(=O)OC2C(SCc3ccccc3)OCC(OC(=O)c3ccccc3)C2OC(=O)c2ccccc2)cc1 (configuration not stated)
inactive: [5] 93 % of control | [6] 88 % of control | [7] 88 % of control

CC(C)OC(=O)NCc1cccs1
inactive: dose: 100.0 mg/kg/injection, schedule: Q01DX009 (ip), vehicle: carboxymethylcellulose (CMC) 104 % of control | dose: 200.0 mg/kg/injection, schedule: Q01DX009 (ip), vehicle: carboxymethylcellulose (CMC) 101 % of control | dose: 400.0 mg/kg/injection, schedule: Q01DX009 (ip), vehicle: carboxymethylcellulose (CMC) 104 % of control

Nc1ccccc1Sc1ccc(Br)cc1[N+](=O)[O-]
inactive: dose: 37.5 mg/kg/injection, schedule: Q04DX003 (ip), vehicle: saline 98 % of control | dose: 75.0 mg/kg/injection, schedule: Q04DX003 (ip), vehicle: saline 102 % of control | dose: 150.0 mg/kg/injection, schedule: Q04DX003 (ip), vehicle: saline 93 % of control

COc1ccc(OC(=O)Nc2cc([N+](=O)[O-])ccc2F)cc1
inactive: [11] 106 % of control | [12] 93 % of control | [13] 93 % of control

COc1ccc(CC(CO)C(CO)Cc2ccc(OC)c(OC)c2)cc1OC (configuration not stated)
inactive: [11] 97 % of control | [8] 98 % of control | [12] 93 % of control | [9] 101 % of control | [13] 93 % of control | [10] 100 % of control
